The source of these data is patent US20250002450A1, “CATIONIC STEROID COMPOUNDS, METHOD OF OBTAINING THEREOF, FORMULATIONS COMPRISING THEREOF AND THEIR USES” (UNIVERSIDADE DO PORTO, priority 2021, published 2025).

Test [1] deals with E. coli ATCC 25922. Kind of test: Enzymatic/metabolic activity, MTT assay. The test is classed as cell-based, Escherichia coli. As for the experimental part: To determine whether compound 1 could also affect enzymatic activity, 2-(4,5-dimethyl-2-thiazolyl)-3,5-diphenyl-2H-tetrazolium bromide (MTT) assay was performed. This assay can also be used as an indirect measure of cellular viability, as tetrazolium salts are reduced to purple formazan by metabolically active cells. E. coli ATCC 25922 cells were treated with compound 1 and COL and AMP were used as controls, as described above. Measurements were made at 0, 1, and 18 h.
Enzymatic activity was evaluated by the MTT assay, as previously described, with some modifications. Cell suspensions of E. coli ATCC 25922 were prepared as described above, as well as test conditions and controls. At each time point (0, 1, and 18 h), 500 μL aliquots were collected, centrifuged at 3500 rpm for 10 min, the supernatant was removed, and 300 μL of MTT solution (0.5 mg/mL in CAMHB, at 36 degrees C.) (Thiazolyl Blue Tetrazolium Bromide, Alfa Aesar, Ward Hill, MA, USA) were added. After a 30 min incubation at 36° C., the insoluble formazan product resulting from the conversion of MTT by metabolically active cells was solubilized with 300 μL of DMSO. 100 μL of each sample were transferred in duplicate to the wells of a microtiter plate and the extent of the reduction of MTT to formazan was quantified by measuring the absorbance at 570 nm (Thermo Scientific Multiskan® EX, Thermo Fisher Scientific, Waltham, MA, USA). Three independent assays were performed in duplicate, and results are expressed as a percentage of untreated control.

The test system of test [2] is E. coli ATCC 25922. Kind of test: Membrane integrity, propidium iodide influx assay (SYTO 9/PI). The test is classed as cell-based, Escherichia coli. As for the experimental part:
The influx of PI in E. coli ATCC 25922 treated with 2×MIC, MIC, and ½×MIC of compound 1 was evaluated using a commercial kit that includes fluorescent nucleic acid stains SYTO® 9 and PI. SYTO® 9 can enter cells with intact or damaged membranes, generally labeling both, whereas PI only penetrates cells with severe membrane lesions, causing a reduction in SYTO® 9 fluorescence when both dyes are present.
In these assays, COL and AMP were used as controls. COL is a polycationic antimicrobial peptide with a complex mode of action, that ultimately solubilizes the bacterial cell membrane. AMP is an aminopenicillin that inhibits cell wall synthesis by inhibiting penicillin-binding proteins. E. coli ATCC 25922 cells were treated with compound 1 and, at several time-points (0, 1, and 18 h), samples were taken, and SYTO® 9/PI ratio was determined ([FIG. 4]). The entrance of PI is reflected in a reduction of this ratio.
Briefly, E. coli ATCC 25922 colonies from overnight cultures in MHA were suspended in CAMHB to prepare an inoculum with a final concentration of approximately 5×10^5 CFU/mL. The tubes were incubated overnight at 36° C. in a water bath with shaking. Following this, the cell suspensions were centrifuged at 3500 rpm for 15 min, the supernatant was removed, the cells were carefully resuspended in fresh CAMHB and the suspension was adjusted to 0.5 McFarland. An aliquot of this suspension was then added to each tube of CAMHB alone (control) or CAMHB plus an appropriate amount of test compound. […] The tubes were incubated at 36 degrees C. in a water bath with shaking and, at pre-established time points (0, 1, and 18 h), […] aliquots were retrieved for further analysis. After the exposure time, cells were washed two times, resuspended in 0.85% NaCl, and 100 μL of each cell suspension was distributed in the wells of a microtiter plate, in triplicate. 100 μL of a mixture of 30 μM PI and 5 μM SYTO® 9 prepared in ultrapure water were added to each well, and the plates were incubated at room temperature, in the dark, for 15 min. The fluorescence intensity of the stained bacterial suspensions was determined using a microplate reader (Synergy HT, BioTek Instruments, Winooski, VT, USA) by two consecutive measurements with excitation wavelength 485 nm and emission wavelength 528 nm (SYTO® 9) or 590 nm (PI). Data were analyzed by subtracting background fluorescence from each sample, dividing the fluorescence intensity of SYTO® 9 by fluorescence intensity of PI, and the results are presented as a percentage of control. Three independent assays were performed in triplicate for each experimental condition.

For test [3], the system named is C. albicans ATCC 10231. Kind of test: Time-kill kinetics. The format is cell-based, Candida albicans. As for the experimental part: As mentioned for antibacterial activity, time-kill plots allow the evaluation of killing of a microbial isolate over time and establishing how much exposure time is needed in order to achieve a fungicidal effect, which is usually defined by ≥99.9% killing of the initial inoculum and is determined by a 3-log10-unit decrease in CFU/mL. […] Time-kill kinetics of compound 1 were evaluated for C. albicans ATCC 10231.
Determination of killing of C. albicans ATCC 10231 over time was carried out using the time-kill method, as previously described. This assay was performed for concentrations of compound 1 ranging between 64 and 8 μg/mL. Colonies from 24 h cultures in SDA were suspended in sterile saline and adjusted to 0.5 McFarland. An aliquot of this suspension was then added to each tube of RPMI alone (control) or RPMI plus an appropriate amount of compound 1, to give an inoculum of approximately 10^5 CFU/mL in a final volume of 10 mL. Tubes were incubated at 36° C. in a water bath with shaking and vortexed prior to removing each sample for the determination of colony counts. At predetermined time points (30 min, 1, 1.5, 2, 3, 4, 6, 8, and 12 h), 100 μL aliquots were aseptically removed from each tube, serially diluted in sterile saline, and spread on SDA plates. Colony counts were determined following incubation at 36° C. for 24 to 48 h and log10 CFU/mL was plotted against time. At least three independent experiments were performed.

The test system of test [4] is S. aureus 66/1. Kind of test: Checkerboard synergy with OXA. The test is classed as cell-based, Staphylococcus aureus. The protocol: (§1) The combined effect of compound 1 and CTX for E. coli SA/2, VAN for E. faecalis B3/101, COL for E. coli 2252, erythromycin for E. coli ATCC 25922, and OXA for S. aureus 66/1 was evaluated by the checkerboard method. […] The interaction between compound 1 and erythromycin was assessed for E. coli ATCC 25922. Gram-negative bacteria are intrinsically resistant to erythromycin, a macrolide that inhibits protein synthesis, and cannot penetrate the outer membrane of Gram-negative bacteria, which is impermeable to hydrophobic antibiotics. Ascertain ceragenins have been previously described to be able to enhance the efficacy of such antibiotics, this possibility was investigated for compound 1 and a FICI of 0.6 was obtained.

Test [5] has as its system E. faecalis B3/101. The experiment in a line: Checkerboard synergy with VAN. The test is classed as cell-based, Enterococcus faecalis. The protocol: as §1

For the molecule `C[C@H](CCC(=O)NCCN)[C@H]1CC[C@H]2[C@@H]3CC[C@@H]4C[C@H](O)CC[C@]4(C)[C@H]3C[C@H](O)[C@]12C` [Compound 1, (R)—N-(2-aminoethyl)-4-((3R,5R,8R,9S,10S,12S,13R,14S,17R)-3,12-dihydroxy-10,13-dimethylhexadecahydro-1H-cyclopenta[a]phenanthren-17-yl) pentanamida], the “metabolic activity (MTT) vs untreated control” value in test [1] (32 μg/mL, after 1 and 18 h) is “decrease in enzymatic activity”; in test [1] (64 μg/mL, 0, 1, 18 h) it was “significantly reduced at all time points”. Moreover, the “reduction in SYTO 9/PI ratio vs untreated control” value in test [2] (32 μg/mL (MIC), after 1 and 18 h) is given as “significant”; in test [2] (64 μg/mL (2×MIC, MBC), 0, 1, 18 h), “significant at all time points”. In addition, in test [3] (64 μg/mL (MIC)), the “exposure time to fungicidal effect (≥99.9% killing)” value is “approximately 4 h”. In addition, the “additional time to produce an additional 1-log10-unit decrease in CFU/mL” value in test [3] (64 μg/mL, after the first 2 h) came to 10 h. For the same molecule, in test [3] (64 μg/mL, until 2 h of exposure), the “decrease in CFU/mL each hour” value was 1 log10-unit. For the same molecule, the “type of killing (in words)” value in test [3] (64-8 μg/mL) was “concentration-dependent killing”. The “combined effect with OXA (in words)” value in test [4] is “No synergistic interactions”. For the same molecule, in test [5], the “combined effect with VAN (in words)” value is reported as “No synergistic interactions”.
